The test system of test [1] is p-TBK1, p-AMPKα, UCP1. Kind of test: Western blotting of TNF-α induced 3T3-L1 adipocytes. In kind it is cell-based, Murine. Also noted: p-TBK1 / p-AMPKα (western blotting, Figure 7j) / UCP1 (western blotting, Figure 7k): unit not given here. The settings on record: for p-TBK1: Figure 7i, replicates; for UCP1 (western blotting, Figure 7k) / p-AMPKα (western blotting, Figure 7j): 3T3-L1 adipocytes, replicates 1-3. How it is done: The adipose tissue or 3T3-L1 adipocytes were homogenized by ultrasound in an ice‐cold RIPA lysis buffer containing 1% PMSF and centrifuged at 12,000 × g at 4°C for 15 min to collect the supernatant. The BCA protein assay kit (Beyotime, Shanghai, China) was used to detect the total protein concentration. Proteins (20-30 μg) of the sample were separated by 10% SDS-PAGE gel and transferred onto polyvinylidene difluoride (PVDF) membranes. Then the PVDF membranes were blocked in 5% skim milk powder in TBS containing 1% Tween-20 (TBST) for 2 h at room temperature and washed with TBST for 3 times. The membranes were incubated with the appropriate primary antibody, IKKε (1:1000 dilution), TBK1 (1:1000 dilution), p-TBK1 Ser172 (1:1000 dilution), p-AMPKα Thr172 (1:1000 dilution), UCP1 (1:1000 dilution), and GAPDH (1:1000 dilution) in the blocking buffer solution at 4 °C overnight. After washing, the membranes were incubated with horseradish peroxidase-conjugated secondary antibodies (in 5% skim milk powder) for 1 h at room temperature. Finally, the membranes were treated with enhanced chemiluminescence agents (Tanon, Shanghai, China) and the signals were monitored using the Tanon 5200 multi chemiluminescent imaging system (Tanon, Shanghai, China).

For test [2], the system named is 3T3-L1 adipocytes. Kind of test: Oil Red O staining and lipid quantification.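 On Oil Red O staining of differentiated 3T3-L1 adipocytes spectrophotometric analysis: treatment added on day 8 of adipocyte differentiation.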 In kind it is cell-based, Murine. Conditions: for Oil Red O staining of differentiated 3T3-L1 adipocytes spectrophotometric analysis: Figure 7b, replicates. How it is done:
Meanwhile, we conducted in vitro experiments to validate the role of BJ in adipocytes. […] These findings were similar to the results in vivo.
Murine 3T3-L1 preadipocytes were the kind gift of Prof. Wenbin Shang and Prof. Xizhong Yu (Nanjing University of Chinese Medicine, China). Cells were cultured in Dulbecco’s modified Eagle’s medium (DMEM) supplemented with 10% (vol/vol) fetal bovine serum (FBS), 1% (vol/vol) penicillin/streptomycin in an incubator at 37 °C and 5% CO2 (until confluent). Two days after the preadipocytes reached 100% confluency (designated day 0), the cells were cultured in DMEM with 10% FBS supplemented with IBMX (0.5 mM final concentration), DEX (1 μM final concentration), and insulin (10 μg/ml final concentration) for 3 days (days 0–3). Then the cells were cultured in a medium containing insulin (10 μg/ml final concentration) for another 3 days (days 3–6).
Lipid accumulation in differentiated adipocytes was observed by Oil Red O staining. The differentiated 3T3-L1 adipocytes were washed with PBS for 3 times and fixed with 4% paraformaldehyde for 30 min at room temperature. The fixed 3T3-L1 adipocytes were washed with PBS for 3 times and stained with Oil Red O solution at room temperature for 60 min. Stained lipid droplets were photographed and then eluted with 100% isopropanol stained Oil Red O. Finally, the optical density (OD) value of the eluent was measured at 510 nm wavelength with a microplate reader.

Test [3] concerns cAMP. Briefly: cAMP levels in eWAT of db/db mice (isoproterenol). In kind it is in vivo. More on the design: cAMP levels in eWAT (Figure 4l): unit not given here. Conditions: for cAMP levels in eWAT: db/db mice, isoproterenol stimulation; for cAMP levels in eWAT (Figure 4l): individual samples 1-6. How it is done:
The epididymal adipose tissue was dissected, the fresh adipose tissue was weighed and rapidly rinsed with PBS. The adipose tissue was cut and incubated with isoproterenol (10 μM) for 2 h, and homogenized in a cold cleavage buffer to prepare the adipose tissue homogenate. Then the homogenate was centrifuged at 12,000 × g at 4 °C for 15 min, and the supernatant was collected. For 3T3-L1 adipocytes, the adipocytes were treated with or without 50 ng/ml TNF-α or 3 μg IKKε plasmid or 4 μM siIKKε for 24 h and then treated with or without 10 μM ISO or 10 μM BJ for 24 h. Then the cells were lysed in a petri dish, scraped off, and centrifuged at 12,000 × g at 4 °C for 15 min before the supernatant was collected.
Glycerol or cAMP content in adipose tissue and 3T3-L1 adipocytes was determined by a glycerol assay kit (Nanjing Jiancheng Bioengineering Institute, Nanjing, China) or a mouse cAMP assay kit (Nanjing Jiancheng Bioengineering Institute, Nanjing, China). And concentrations were further standardized according to protein concentration.
For orientation: cAMP levels reflect the balance of adenylyl cyclase and phosphodiesterase activity.

The subject of test [4] is Fasn, Acaca, Lpl, Ucp1, Ppargc1a, Ppargc1b, Elovl3, Cox8b. Briefly: qRT-PCR of lipid-metabolism-related genes (eWAT) and thermogenic genes (BAT). The format is in vivo. The settings on record: db/db mice; for Expression of lipogenic genes (Fasn, Acaca, Lpl) in eWAT: vs vehicle control. An excerpt:
Total RNA was isolated from 3T3-L1 cells and adipose tissue homogenates using Trizol reagent (Invitrogen, Carlsbad, CA, USA). RNA concentration and purity were examined at 260/280 nm using a nanodrop spectrophotometer (NanoDrop One, Thermo Fisher Scientific, USA). The total RNA was reverse transcribed to cDNA using the EasyScript All-in-One First-Strand cDNA Synthesis SuperMix for qPCR kit (TransGen Biotech, Beijing, China). The quantitative reverse transcription polymerase chain reaction was performed using TransStart Top Green qPCR SuperMix (TransGen Biotech, Beijing, China) and an Applied Biosystems 7500 RealTime PCR System (Life Technologies, USA). Relative expression levels were normalized to gapdh expression and quantified using the 2^-ΔΔCt method. The primers were synthesized by Shanghai Sangon Biotech, and the detailed primer sequences were shown in Supplementary Table 5 in the supplementary materials.
A general note: Real-time PCR tracks product formation cycle by cycle.

Test [5] relates to TNF-α and IL-6. Kind of test: Serum levels of TNF-α and IL-6 (ELISA). The format is in vivo, mice. More on the design: TNFα / IL-6: unit not given here. Conditions: for IL-6: Figure 5i; for Serum TNF-α and IL-6 levels: db/db mice, 5 weeks of treatment. How it is done: The serum was collected by centrifugation at 3000 × g at 4 °C for 15 min and stored at −80 °C until analysis. TG, TC, LDL-C, HDL-C, and FFA were routinely tested on a Chemray 240 automatic biochemical analyzer (Chemray 240, Shenzhen, China). Serum levels of mouse adiponectin, interleukin6 (IL-6), tumor necrosis factor-α (TNF-α) were measured using commercial enzyme-linked immunosorbent assay (ELISA) kits (Nanjing Jiancheng Bioengineering Institute, Nanjing, China) and according to the manufacturer’s instructions. The levels of IL-6, TNF-α in 3T3-L1 adipocyte culture supernatant were also detected by ELISA.

Values joined by “and” are separate entries in the source; they are usually repeats but may differ in a detail not shown here. Equal entries are not always repeated.

Turning to `COc1ccc2cc3[n+](cc2c1OC)CCc1cc2c(cc1-3)OCO2` [BBR, Berberine chloride dihydrate], the p-TBK1 in test [1] (Tnfa + 10um BBR) is 0.5119 and 0.483 and 0.454. In addition, in test [1] (Tnfa + 10um), the “UCP1 (western blotting, Figure 7k)” value is 0.8587 and 1.148 and 0.9274; the “p-AMPKα (western blotting, Figure 7j)” value was 0.5058 and 0.5536 and 0.7822. In addition, the “Oil Red O staining of differentiated 3T3-L1 adipocytes spectrophotometric analysis” value in test [2] (10μM BBR) was 0.6307 O.D. and 0.6591 O.D. and 0.6319 O.D. and 0.6294 O.D. and 0.6584 O.D. and 0.6194 O.D. Besides, the “cAMP levels in eWAT” value in test [3] is “increased the cAMP levels”. For the same compound, the “cAMP levels in eWAT (Figure 4l)” value in test [3] (db/db+ISO+BBR 150mg/kg) was 0.3703 and 0.3189 and 0.32 and 0.3561 and 0.3523 and 0.3716. In test [4], the “Expression of brown fat enrichment genes (Ucp1, Ppargc1a, Ppargc1b, Elovl3, Cox8b) in BAT” value is on record as “elevated express” and the “Expression of lipogenic genes (Fasn, Acaca, Lpl) in eWAT” value was “downregulation of lipogenic genes”. In addition, the IL-6 in test [5] (BBR 150mg/kg, individual values) is 24.23 and 30 and 30.18 and 32.12 and 23.56 and 26.45. In addition, the TNFα in test [5] (Figure 5h, BBR 150mg/kg, individual values) was 161.97 and 148.57 and 185.98 and 167.03 and 204.23 and 186.47. Further, the “Serum TNF-α and IL-6 levels” value in test [5] was “significantly lower than those in the vehicle-treated group”.
Turning to `CC(C)Cc1ccc(C(C)C(=O)[O-])cc1.COc1ccc2cc3[n+](cc2c1OC)CCc1cc2c(cc1-3)OCO2.O.O.O.O` [BJ, berberine-ibuprofen], the p-TBK1 in test [1] (Tnfa + 3um BJ) was 0.5551 and 0.4207 and 0.3485; in test [1] (Tnfa + 10um BJ), 0.5649 and 0.4409 and 0.466. Besides, in test [1] (TNF-α induced 3T3-L1 adipocytes, BJ treatment for 24 h), the “Expression of p-AMPKα, UCP1, and p-TBK1” value is “increased significantly”. Moreover, the “UCP1 (western blotting, Figure 7k)” value in test [1] (Tnfa + 3um) is 0.6944 and 0.7423 and 0.5922; in test [1] (Tnfa + 10um), 1.271 and 1.387 and 0.9844. Also, the “p-AMPKα (western blotting, Figure 7j)” value in test [1] (Tnfa + 3um) was 0.6086 and 0.4894 and 0.5999; in test [1] (Tnfa + 10um), 0.7332 and 0.6589 and 0.63. For the same compound, the “Oil Red O staining of differentiated 3T3-L1 adipocytes spectrophotometric analysis” value is 0.6023 O.D. and 0.5794 O.D. and 0.5902 O.D. and 0.5901 O.D. and 0.5958 O.D. and 0.5823 O.D in test [2] (3μM BJ); 0.6036 O.D. and 0.5893 O.D. and 0.5433 O.D. and 0.5202 O.D. and 0.5568 O.D. and 0.48 O.D in test [2] (10μM BJ). In test [2] (differentiated 3T3-L1 adipocytes, BJ 3 μM and 10 μM, 24 h, Oil Red O), the “Accumulation of lipid droplets” value is reported as “reduced the accumulation of lipid droplets in 3T3-L1 adipocytes in a dose-dependent manner”. The “cAMP levels in eWAT” value in test [3] was “increased the cAMP levels”. Moreover, the “cAMP levels in eWAT (Figure 4l)” value in test [3] (db/db+ISO+BJ 75mg/kg) was 0.344 (2×) and 0.3396 and 0.3778 and 0.3937 and 0.3516; in test [3] (db/db+ISO+BJ 150mg/kg), 0.3909 and 0.4246 and 0.4135 (2×) and 0.4162 and 0.4061. Also, in test [4], the “Expression of brown fat enrichment genes (Ucp1, Ppargc1a, Ppargc1b, Elovl3, Cox8b) in BAT” value is listed as “elevated express”. Moreover, the “Expression of lipogenic genes (Fasn, Acaca, Lpl) in eWAT” value in test [4] is reported as “downregulation of lipogenic genes”. In addition, the IL-6 in test [5] (BJ 75mg/kg, individual values) was 26.97 and 31.48 and 28.06 and 26.92 and 26.5 and 27.07; in test [5] (BJ 150mg/kg, individual values) it was 19.1 and 22.16 and 23.89 and 18.97 and 21.55 and 28.79. In test [5], the “Serum TNF-α and IL-6 levels” value is recorded as “significantly lower than those in the vehicle-treated group”.

The values are drawn from PMC9374667 (Communications Biology, 2022).
